These results are taken from PubChem BioAssay AID651569 (Sanford-Burnham Center for Chemical Genomics, 2012).

Active and inactive are the calls of the source. How the calls were made is not given here.

This assay relates to luminescent cytotoxicity (cell viability) counter-screen. The assay is described as follows: cytotoxicity of Gli-SUFU antagonist hits, dose response, cytotoxicity control for Gli-SUFU antagonist project, cell-based, luminescence, uHTS hits (AID 651569).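 Further: compound exposure lasted overnight before the viability readout.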
Regarding `CCCCOC(=O)c1[nH]c2c(c1C)C(=O)CC(c1cc(OC)c(OC)c(OC)c1)C2` (stereo unspecified), the IC50 was > 20 µM (inactive). The result for `COc1cc(C(=O)NC2CCN(C)CC2)ccc1Nc1ncc2c(n1)N(CCc1ccccc1)CCC(=O)N2C` reads > 20 µM (inactive).

Regarding `CCCCCCCOc1ccc(OC(=O)c2ccncc2)cc1`, the IC50 was > 20 µM (inactive). The result for `O=C(c1ccc(Cl)cc1)N1CCN(c2ccnc3cc(Cl)ccc23)CC1` reads > 20 µM (inactive); that for `CC(Sc1nc2ccccc2c(=O)n1C)C(=O)NC1CCCCC1C` (stereo unspecified), 16.7 µM. Turning to `Clc1ccc(-c2c[n+](Cc3ccc(Cl)cc3Cl)c3n2CCCCC3)cc1`, the IC50 is 9.17 µM. Consider `CN1/C(=C\C(=O)COC(=O)CNC(=O)c2ccc3ccccc3c2)C(C)(C)c2ccccc21`, for which the IC50 was > 20 µM (inactive).

Turning to `CCC(C)[C@H]1CN=C(N)N1CCc1cccc2ccccc12` (stereo partly specified), the IC50 was > 20 µM (inactive).

Regarding `O=C(N[C@@H]1C/C=C\C[C@H](CC(=O)N(CCO)Cc2ccccc2)C(=O)NC[C@@H](c2ccccc2)OC1=O)OCC1c2ccccc2-c2ccccc21`, the IC50 is > 20 µM (inactive).

On to `Cc1nnsc1C(=O)NC1CCCc2c1cnn2-c1ccc(F)cc1F` (stereo unspecified), for which the IC50 was > 20 µM (inactive).

As to `CC(NC(=O)c1cc2c(=O)n3ccccc3nc2n(CC2CCCO2)c1=N)c1ccccc1` (stereo unspecified), the IC50 is > 20 µM (inactive). With `CC1CCC(NC(=O)c2cccc(S(=O)(=O)N3CCN(c4ccccc4)CC3)c2)CC1` (stereo unspecified), the IC50 is > 20 µM (inactive). `CCC(CC)CN1C(N(C)C)=NC[C@@H]1CC(C)C`: the IC50 was > 20 µM (inactive). As to `Cn1nc(CC(=O)NCc2ccc(C(F)(F)F)cc2)c2ccccc2c1=O`, the IC50 was > 20 µM (inactive).

For `O=C1N/C(=C\c2ccc(O)cc2)C(O)=C1C=NCc1ccccc1`, the IC50 is 4.41 µM. `Cc1cc(NC(=O)CSc2nc3c([nH]c4ccccc43)c(=O)n2-c2ccccc2F)no1`: the IC50 is > 20 µM (inactive).

For `C[n+]1c2n(c3ccccc31)N=C(c1ccc(-c3ccccc3)cc1)CS2`, the IC50 was > 20 µM (inactive). For the compound `C=CCNc1nc2c(c(=O)n(C)c(=O)n2C)n1Cc1ccc(F)cc1`, the IC50 was > 20 µM (inactive). With `COc1cccc(/C=C/c2ccncc2)c1OC`, the IC50 was > 20 µM (inactive). Turning to `CC(Sc1nc2ccccc2c(=O)n1C)C(=O)N(C)C1CCCCC1` (stereo unspecified), the IC50 is > 20 µM (inactive).

As for `COc1cc(C(=O)NC2CCN(C)CC2)ccc1Nc1ncc2c(n1)N(C1CCCCC1)CCC(=O)N2C`, the IC50 was 15.7 µM. Regarding `O=C(N[C@@H]1C/C=C\C[C@@H](CC(=O)N(CCO)Cc2ccccc2)C(=O)NC[C@H](c2ccccc2)OC1=O)OCC1c2ccccc2-c2ccccc21`, the IC50 is > 20 µM (inactive).

`Cc1ccc(NC(=O)/C=C/c2ccco2)cc1S(=O)(=O)N1CCCCCC1`: the IC50 is 6.1 µM.

Take `CCCOc1ccc(Br)cc1CSC(=N)N`: the IC50 is 8.78 µM. For the compound `COc1ccc(CNCC(O)COc2cccc3c2OC(C)(C)C3)cc1` (stereo unspecified), the IC50 is > 20 µM (inactive). On to `CCOP(=O)(CCP(=O)(OCC)OCC)OCC.C[CH2][Sn]([Cl])([Cl])[CH2]C`, for which the IC50 was 12.6 µM. The result for `C=CCOc1nc2c(c(=O)n(C)c(=O)n2C)n1Cc1ccc(Cl)cc1` reads > 20 µM (inactive); that for `CCn1c(=O)cc(SCC(=O)N2CCN(C3CCCCC3)CC2)c2ccccc21`, > 20 µM (inactive).

Consider `Cc1cc(C)c[n+](C(C)C(=O)c2ccc(-c3ccccc3)cc2)c1` (stereo unspecified), for which the IC50 was > 20 µM (inactive). Take `Cc1cc(C)c(C(N)=O)c(SCC(=O)c2cc(C)n(-c3cc(C)on3)c2C)n1`: the IC50 was > 20 µM (inactive). On to `O=C(Cc1csc(Nc2nc(=S)[nH]c3ccccc23)n1)NCCCN1CCN(c2ccccc2F)CC1`, for which the IC50 was > 20 µM (inactive). Turning to `C=CCn1c(O)c(N=NC(=S)Nc2cccc(C)c2)c2ccccc21`, the IC50 was > 20 µM (inactive). For `CC(C)Cn1c(N)c(C(=O)COC(=O)C2Cc3ccccc3CN2S(C)(=O)=O)c(=O)n(C)c1=O` (stereo unspecified), the IC50 is > 20 µM (inactive).

In the case of `O=C(C[C@H]1C/C=C\C[C@@H](NC(=O)OCC2c3ccccc3-c3ccccc32)C(=O)O[C@@H](c2ccccc2)CNC1=O)N[C@H](CO)Cc1ccccc1`, the IC50 is > 20 µM (inactive).

`O=C(Nc1ccccc1)C1=C[C@H](C2CCCCC2)C[C@H](OCCCCO)O1`: the IC50 is > 20 µM (inactive). With `COc1ccc(NS(=O)(=O)c2ccc(NC(C)=O)cc2)cc1OC`, the IC50 is > 20 µM (inactive). As to `Cc1ccc(-c2c[n+](Cc3ccc(Cl)c(Cl)c3)c3n2CCC3)cc1`, the IC50 is 13.7 µM. As to `Cc1ccc(NC(=O)COc2ccccc2C(N)=O)cc1S(=O)(=O)N1CCCCCC1`, the IC50 is 19.8 µM. As to `NC(=O)c1ccccc1OCC(=O)N1CCC(Cc2ccccc2)CC1`, the IC50 is > 20 µM (inactive). With `O=C(C[C@@H]1C/C=C\C[C@@H](NC(=O)OCC2c3ccccc3-c3ccccc32)C(=O)OC[C@@H](Cc2ccccc2)NC1=O)NCCO`, the IC50 is > 20 µM (inactive). In the case of `CC(C)(C)c1ccc(C(=O)NC(=S)Nc2ccc(N3CCOCC3)cc2)cc1`, the IC50 is > 20 µM (inactive).

On to `O=C(Nc1ccncc1)c1ccc(-c2ccccc2)cc1`, for which the IC50 is > 20 µM (inactive). Turning to `CCCCOc1ccc(N2C(N)=NC(N)=NC23CCCCC3)cc1`, the IC50 was > 20 µM (inactive). For the compound `CCCN1CCC(=O)N([C@H](CSc2ccc(OC)cc2)Cc2ccccc2)CC1`, the IC50 was > 20 µM (inactive). As to `Cc1c(C(C)C)c(=O)n(-c2ccc(S(=O)(=O)NCc3ccccc3)cc2)n1C`, the IC50 was > 20 µM (inactive). Regarding `CCCCc1ccc(NC(=O)C(=O)NCCN2CCN(Cc3ccc([N+](=O)[O-])cc3)CC2)cc1`, the IC50 was > 20 µM (inactive). Turning to `CCc1c(C)nc2ncnn2c1N1CCN(S(=O)(=O)c2ccc(OC)cc2)CC1`, the IC50 was > 20 µM (inactive).

For the compound `COc1ccc(Cn2c(-c3ccc(Cl)cc3)c[n+]3ccccc23)cc1`, the IC50 is > 20 µM (inactive). Next, `Brc1ccc(-c2csc(N3CCCCCC3)n2)cc1`: > 20 µM (inactive); `CCOC(=O)N1CCN(C(=O)c2ccc(CSc3ccc(Cl)cc3)cc2)CC1`: > 20 µM (inactive). The result for `C[C@@H]1COC(=O)[C@H](NC(=O)OCC2c3ccccc3-c3ccccc32)C/C=C\C[C@@H](CC(=O)N[C@@H](CO)Cc2ccccc2)C(=O)N1` reads > 20 µM (inactive); that for `CCOc1ccc(-n2c(-c3ccc(Cl)cc3)c[n+]3c2SCC3)cc1`, 19 µM; that for `O=S(=O)(c1ccc2c(c1)nc(COc1ccc(Cl)cc1)n2CC1CCCO1)N1CCOCC1` (stereo unspecified), > 20 µM (inactive). The result for `CC1CCN(Cc2c(C(=O)N/N=C/c3ccccc3O)nnn2-c2nonc2N)CC1` reads > 20 µM (inactive); that for `COc1ccccc1-c1c(-c2ccc(O)cc2O)n[nH]c1C(F)(F)F`, > 20 µM (inactive); that for `O=C(Cn1cnc2ccccc21)Nc1cccc(S(=O)(=O)N2CCCC2)c1`, > 20 µM (inactive). With `COC(=O)c1cc(S(=O)(=O)N2CCC(c3cc(OC)ccc3OC)C2)c[nH]1` (stereo unspecified), the IC50 is > 20 µM (inactive).

Turning to `CC(C)C[C@H]1CN=C(N(C)C)N1CCCCc1ccccc1`, the IC50 is > 20 µM (inactive). For the compound `Cc1csc2ncnc(NCCc3ccccn3)c12`, the IC50 was > 20 µM (inactive). On to `CN(Cc1ccc(OC(F)F)cc1)C(=O)c1cccc(S(=O)(=O)N2CCN(Cc3ccccc3)CC2)c1`, for which the IC50 is > 20 µM (inactive). `Cc1ccc(OCCN2CCN(c3ncnc4sc(C)c(C)c34)CC2)cc1`: the IC50 is > 20 µM (inactive). The result for `COc1ccc(N2CCN(c3ncnc4c3[nH]c3ccccc34)CC2)cc1` reads > 20 µM (inactive); that for `Cc1nn(C)c(C(=O)NCc2ccc(Cl)cc2)c1Cl`, > 20 µM (inactive); that for `CC1=CC(C)C2(COC(c3ccc[n+](C)c3)OC2)C(C)C1` (stereo unspecified), > 20 µM (inactive). As for `COc1cccc(CN(C)C(=O)c2cc(COc3ccc4ncccc4c3)on2)c1`, the IC50 is > 20 µM (inactive). Consider `CCN1C(=O)CCN(C2CCCC2)c2nc(Nc3ccc(C(=O)NC4CCN(C)CC4)cc3OC)ncc21`, for which the IC50 was > 20 µM (inactive). On to `CC(=O)N1c2ccc(S(=O)(=O)N3CCC(C(=O)N4CCCCC4)CC3)cc2CC1C` (stereo unspecified), for which the IC50 is > 20 µM (inactive).

Regarding `CN(CCOc1ccc(Cl)cc1)C(=O)c1cccc(S(=O)(=O)N2CCN(c3ccc(F)cc3)CC2)c1`, the IC50 is > 20 µM (inactive). With `O=C(Cc1ccc(Cl)cc1Cl)Nc1ccncc1`, the IC50 is > 20 µM (inactive). Turning to `Nc1ccc(Br)cc1-c1nc2ccccc2[nH]c1=O`, the IC50 is > 20 µM (inactive).

With `CCCCCCCOc1ccc(OC(=O)c2cccnc2)cc1`, the IC50 is > 20 µM (inactive). In the case of `COc1ccc(CCNc2ncnc3c2oc2ccccc23)cc1OC`, the IC50 is > 20 µM (inactive). In the case of `CCn1c(=NC(=O)CS(=O)(=O)c2ccccc2)sc2cccc(OC)c21`, the IC50 was > 20 µM (inactive). The result for `c1ccc(-c2c[n+]3c(n2-c2ccccc2)CCC3)cc1` reads > 20 µM (inactive); that for `Cc1sc2ncnc(NCc3cccs3)c2c1C`, > 20 µM (inactive); that for `COc1cc2c(c(OC)c1OC)-c1ccc(N(C)CC(OC)OC)c(=O)cc1[C@@H](NC(C)=O)CC2`, 10.6 µM.

As to `O=C(N[C@H]1C/C=C\C[C@@H](CC(=O)N(CCO)Cc2ccccc2)C(=O)NC[C@H](c2ccccc2)OC1=O)OCC1c2ccccc2-c2ccccc21`, the IC50 was > 20 µM (inactive). The result for `O=[N+]([O-])c1ccc(N2CCN(C(=S)NCc3ccc(Cl)cc3)CC2)cc1` reads > 20 µM (inactive); that for `COc1ccccc1N1CCN(c2ncc(C(=O)N3CCN(c4cccc(Cl)c4)CC3)c3ccccc23)CC1`, > 20 µM (inactive); that for `NC(=O)c1c(-c2ccc(Cl)cc2Cl)csc1NC(=O)Cc1ccccc1`, 16.8 µM.

Turning to `CC[C@@H](O)C[C@H]1CCC[C@@]2(C[C@@H]3OC(=O)/C=C/[C@@](C)(O)[C@@H](O)[C@H](C)[C@@H](O)[C@H](OC4CCC(N(C)C)C(C)O4)[C@@H](O)[C@](C)(O)CCCCC/C=C/[C@@H]4CC(C)(C)O[C@@]4(O)C[C@H](O2)[C@H]3C)O1` (stereo partly specified), the IC50 was > 20 µM (inactive).
